The subject of one test is DNA. In words: DNA binding.
For the next test, the target named is T1, androgen receptor (Homo sapiens, UniProt P10275).
T1 construct: expressed in transfected cells; host or cells: 293 cells
T1 sequence (P10275 1-920): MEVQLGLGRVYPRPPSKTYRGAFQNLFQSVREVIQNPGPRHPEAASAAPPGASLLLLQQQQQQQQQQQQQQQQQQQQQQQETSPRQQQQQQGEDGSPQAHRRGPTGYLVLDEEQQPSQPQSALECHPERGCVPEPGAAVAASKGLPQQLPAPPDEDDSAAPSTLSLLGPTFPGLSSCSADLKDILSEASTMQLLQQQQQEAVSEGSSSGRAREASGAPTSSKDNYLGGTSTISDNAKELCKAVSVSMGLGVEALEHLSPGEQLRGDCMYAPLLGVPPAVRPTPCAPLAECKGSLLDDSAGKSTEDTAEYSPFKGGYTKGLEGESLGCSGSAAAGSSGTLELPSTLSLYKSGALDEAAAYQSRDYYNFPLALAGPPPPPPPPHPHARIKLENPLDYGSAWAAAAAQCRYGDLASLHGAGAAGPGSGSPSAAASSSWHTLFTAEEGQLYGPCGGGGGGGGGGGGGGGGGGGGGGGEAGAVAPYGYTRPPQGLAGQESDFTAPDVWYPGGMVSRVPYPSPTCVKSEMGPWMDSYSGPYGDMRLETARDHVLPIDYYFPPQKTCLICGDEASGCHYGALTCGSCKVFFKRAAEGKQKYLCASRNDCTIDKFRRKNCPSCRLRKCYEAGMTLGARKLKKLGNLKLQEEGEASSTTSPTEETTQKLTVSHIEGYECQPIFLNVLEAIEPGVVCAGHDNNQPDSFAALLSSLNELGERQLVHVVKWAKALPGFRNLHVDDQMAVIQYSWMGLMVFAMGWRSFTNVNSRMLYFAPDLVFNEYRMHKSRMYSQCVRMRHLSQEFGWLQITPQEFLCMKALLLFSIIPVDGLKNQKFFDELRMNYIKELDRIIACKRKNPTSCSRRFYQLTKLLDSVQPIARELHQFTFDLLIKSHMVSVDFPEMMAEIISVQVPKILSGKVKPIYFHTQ
T1 sequence (Q14192 1-279 partner): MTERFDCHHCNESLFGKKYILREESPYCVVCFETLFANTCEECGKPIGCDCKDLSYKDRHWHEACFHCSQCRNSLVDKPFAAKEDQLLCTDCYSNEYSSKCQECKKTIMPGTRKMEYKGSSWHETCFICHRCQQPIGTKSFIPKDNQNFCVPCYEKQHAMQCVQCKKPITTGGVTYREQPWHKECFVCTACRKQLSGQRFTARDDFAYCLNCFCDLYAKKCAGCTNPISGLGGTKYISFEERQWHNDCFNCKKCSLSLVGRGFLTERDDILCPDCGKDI
In words: androgen receptor co-activation, MMTV-LUC or proteasin-Luc reporter, transient transfection. To be noted: 293 cells; with R1881; increasing amount of SLIM3-expression plasmid. The format is cell-based.

Take “SLIM3: LIM-domain protein of 279 amino acids, co-activator for nuclear receptors AR and ERβ”: in the test with DNA, the “binding to DNA” value is given as “does not bind”. In addition, in the test with androgen receptor, the “additional super-induction of the reporter gene” value is listed as “three-fold to five-fold”.

For the origin of these results see patent publication US20020004209A1, “Use of SLIM3 for binding to molecules” (Schering Aktiengesellschaft Patents, priority 1999, published 2002).
